How the values were obtained:
[1] = system: HeLa cervical cancer cells; assay: HeLa cell viability after treatment with analog (cell count, cell viability analyzer); assay type: cell-based, human; conditions: for HeLa Cell viability after treatment with analog (% viability): three days, relative to DMSO vehicle
Procedure: Cell numbers were counted with a cell viability analyzer (Beckman-Coulter). The ratio of drug treated viable cell numbers to control vehicle (DMSO) treated viable cell numbers was defined as percentage viability. […] Compound nos.
The HeLa cells used in the experiments summarized by Table 5 were cultured in RPMI-1640 medium supplemented with 10% FBS, 4 mM glutamine, 1 mM sodium pyruvate, 100 IU/mL penicillin, 100 ug/mL streptomycin and 0.25 ug/mL amphotericin. The HeLa cells were plated in 24-well plates at a density of 20,000 cells in each well in 10% FBS RPMI-1640. […] Cell numbers were counted with a cell viability analyzer (Beckman-Coulter). […]

[2] = system: PC-3 prostate cancer cells; assay: In vitro cytotoxicity against PC-3 prostate cancer cells; assay type: cell-based, human; conditions: PC-3 cells, five days
Procedure: (§1) The half maximal inhibitory concentration (IC50) is a measure of the effectiveness of a substance in inhibiting a specific biological or biochemical function. It is commonly used as a measure of antagonist drug potency.
Cell cultures were maintained in 5% carbon dioxide at a temperature of 37° C. […] Cell numbers were counted with a cell viability analyzer (Beckman-Coulter). […] A preliminary dose response curve was prepared from the collected data by means well known to those of ordinary skill in the art.
(§2) The six different concentrations fell within a selected linear concentration range determined by reference to the preliminary dose response curve and efforts to estimate the concentration at which 50% of the cell growth would be inhibited. The selected six different concentrations were used to further fill out the dose response curve to pinpoint a more exact IC50 value.

[3] = system: DU-145 prostate cancer cells; assay: In vitro cytotoxicity against DU-145 prostate cancer cells; assay type: cell-based, human; conditions: DU-145 cells, five days
Procedure: as §1
Cell numbers were counted with a cell viability analyzer (Beckman-Coulter).
(§3) A preliminary dose response curve was prepared from the collected data by means well known to those of ordinary skill in the art.
as §2

[4] = system: HeLa cervical cancer cells; assay: In vitro cytotoxicity against HeLa cervical cancer cells; assay type: cell-based, human; conditions: for IC50: three days
Procedure: as §1
(§4) Cell numbers were counted with a cell viability analyzer (Beckman-Coulter). The ratio of drug treated viable cell numbers to vehicle treated viable cell numbers was defined as percentage viability.
as §3, §2

[5] = system: MCF-10A normal mammary epithelial cells; assay: Cytotoxicity towards non-cancerous MCF-10A cells (FIG. 9); assay type: cell-based; conditions: for cytotoxicity towards MCF-10A normal mammary epithelial cells (in words): 0.1 μM, and 0.01 μM
Procedure: The MCF-10A normal mammary epithelial cells were cultured in RPMI-1640 medium supplemented with 10% FBS, 4 mM glutamine, 1 mM sodium pyruvate, 100 IU/mL penicillin, 100 ug/mL streptomycin and 0.25 ug/mL amphotericin. The MCF-10A cells were plated in 24-well plates at a density of 20,000 each well in 10% FBS RPMI-1640 or DMED medium. […] Cell numbers were counted with a cell viability analyzer (Beckman-Coulter).

[6] = system: MDA-MB-231 breast cancer cells; assay: In vitro cytotoxicity toward MDA-MB-231 cells; assay type: cell-based; conditions: Homo sapiens, 120 h, five days, read-out: IC50 (analog)
Description: as §4

[7] = system: A549 non-small cell lung cancer cells; assay: In vitro cytotoxicity toward A549 cells; assay type: cell-based; conditions: Homo sapiens, 120 h, between three and five days, read-out: IC50 (analog)
Description: as §4

[8] = system: PC-3 prostate cancer cell line; conditions: cited from earlier work
[9] = Homo sapiens, HeLa, 72 h, read-out: HeLa Cell viability after treatment with analog (% viability)

CCC(C)n1ccnc1/C=C/C(=O)/C=C/c1nccn1C(C)CC (stereo not drawn) [Compound 21]
HeLa Cell viability after treatment with analog (% viability) ([1]; 1 μM): 81.8%
HeLa Cell viability after treatment with analog (% viability) ([1]; 10 μM): 17.7%
IC50 [2]: 63 nM
IC50 [3]: 35 nM
IC50 (curcumin)/IC50 (analog) [4]: 16
IC50 [4]: 654 nM
survival of MCF-10A cells ([5]; 0.01 μM, five days, FIG. 9): 100%
survival of MCF-10A cells ([5]; 0.1 μM, five days, FIG. 9): about 90%
cytotoxicity towards MCF-10A normal mammary epithelial cells (in words) ([5]; 1 μM, FIG. 9): no apparent cytotoxicity
survival of MCF-10A cells ([5]; 1 μM, five days, FIG. 9): about 80%

CC(C)Cn1ccnc1/C=C/C(=O)/C=C/c1nccn1CC(C)C [Compound 22]
HeLa Cell viability after treatment with analog (% viability) ([1]; 1 μM): 34.1%
HeLa Cell viability after treatment with analog (% viability) ([1]; 10 μM): 23.1%
IC50 [2]: 46 nM
IC50 [3]: 57 nM
IC50 (curcumin)/IC50 (analog) [4]: 24
IC50 [4]: 430 nM
survival of MCF-10A cells ([5]; 0.01 μM, five days, FIG. 9): 100%
survival of MCF-10A cells ([5]; 0.1 μM, five days, FIG. 9): about 85%
cytotoxicity towards MCF-10A normal mammary epithelial cells (in words) ([5]; 1 μM, FIG. 9): no apparent cytotoxicity
survival of MCF-10A cells ([5]; 1 μM, five days, FIG. 9): about 85%

Cc1cc(/C=C/C(=O)/C=C/c2cc(C)no2)on1 [Compound 28, (1E,4E)-1,5-Bis(3-methylisoxazol-5-yl)penta-1,4-dien-3-one]
viability at 1 µM [1, 9]: 28%
IC50 [2]: 41 nM
IC50 [3]: 16 nM
IC50 [4]: 226 nM
IC50 [6]: 156 nM
IC50 [7]: 160 nM
survival of MCF-10A cells ([5]; 0.01 μM, five days, FIG. 9): about 90%
survival of MCF-10A cells ([5]; 0.1 μM, five days, FIG. 9): about 90%
survival of MCF-10A cells ([5]; 1 μM, five days, FIG. 9): about 85%
melting point: 167 to 169 °C

COc1cc(/C=C/C(=O)/C=C/c2ccc(O)c(OC)c2)ccc1O [FLLL11]
potency towards PC-3 prostate cancer cell line relative to curcumin [8]: more potent than curcumin

COc1cc(/C=C/C(=O)/C=C/c2cc(OC)c(O)c(OC)c2)cc(OC)c1O [FLLL12]
potency towards PC-3 prostate cancer cell line relative to curcumin [8]: more potent than curcumin

COc1cc(/C=C/C(=O)CC(=O)/C=C/c2ccc(O)c(OC)c2)ccc1O [curcumin, reference compound]
viability at 1 µM [1, 9]: 100%
viability at 10 µM [1, 9]: 42.5%
IC50 ([2]; Homo sapiens, PC-3, 120 h): 1980 nM
IC50 ([3]; Homo sapiens, DU-145, 120 h): 300 nM
IC50 ([4]; Homo sapiens, HeLa, 72 h): 10500 nM
IC50 [6]: 880 nM
IC50 [7]: 15000 nM
survival of MCF-10A cells ([5]; human, 5 days, 0.01 µM): 100%
survival of MCF-10A cells ([5]; human, 5 days, 0.1 µM): about 95%
survival of MCF-10A cells ([5]; human, 5 days, 1 µM): about 95%

From patent US9499529B2 (California State University Fresno, priority 2013, dated 2016)
